4 compounds from patent US20260092039A1, “DUAL INHIBITORS FOR THE TREATMENT OF ALZHEIMER'S DISEASE” (UNIVERSITAT DE BARCELONA, priority 2023, published 2026) can be followed below.

In series [1] the target is T1, human recombinant glutaminyl cyclase (hQC) (Homo sapiens, UniProt Q16769).
T1 construct: purchased Eurogentec AS-72230
Kind of series: In vitro determination of human QC inhibitory activity (SensoLyte Green Glutaminyl Cyclase Activity Assay Kit). Type of series: biochemical. The protocol:
Basic statistical analysis was performed.

A further series has as its system LPS stimulated BV2 cells. Briefly: Cytokine release in LPS stimulated BV2 cells. Type of series: cell-based, murine. To be noted: 24 h. The protocol:
Compounds of formula I were diluted from 250 mM DMSO stock solutions to a 10 mM stock in DMSO. Thereafter, the compounds were diluted to 10 μM and 1 μM in medium, so that the final DMSO concentration in the well was 0.1% for all conditions. The stock solutions were stored at −20° C. until further use.
Culture and treatment of BV-2 cells: The murine microglial cell line BV-2 was cultivated in Dulbecco's modified eagle medium (DMEM) supplemented with 10% fetal calf serum (FCS), 1% penicillin/streptomycin and 2 mM L-glutamine (culture medium). For the lipopolysaccharide (LPS) stimulation assay, 20,000 BV-2 cells per well (uncoated 96 well plates) were plated out. After 48 h, the medium was changed to treatment medium (DMEM, 5% FCS, 2 mM L-glutamine) and cells were maintained in treatment medium for the remaining culture period. After changing cells to treatment medium, the compounds were administered 1 h before LPS stimulation (Sigma-Aldrich; L6529; 1 mg/mL stock in ddH2O, final concentration in well: 100 ng/mL (dilutions in medium)). Cells treated with vehicle and LPS alone served as controls. All wells were handled the same way. After 24 h of stimulation, cell supernatants were collected for the cytokine measurement. The experiment was performed in n=6 technical replicates for all groups.
Cytokine measurement: The samples were diluted 1:2 and analysed for 4 cytokines (IL-1β, IL-2, IL-6, TNF-α) with a commercially available immunosorbent assay kit (U-plex, K15069L, Mesoscale Discovery) according to the instructions of the manufacturer. In brief, 25 μL of diluent 41 and 25 μL sample or respective standard were placed into wells of the pre-coated U-plex plate and incubated on an orbital shaker at room temperature for 1 h. Plates were washed 3 times with phosphate buffered saline with 0.05% Tween 20 (PBST) and thereafter 50 μL of detection antibody were added. Plates were again incubated on an orbital shaker at room temperature for 1 h. After another 3 washing steps with PBST, 150 μL of Mesoscale Discovery (MSD) GOLD Read Buffer were added and plates were read on Sector imager. Data were evaluated in comparison to calibration curves provided in the kit.
Statistics: Basic statistical analysis was performed. Group differences were evaluated by e.g. one-way ANOVA followed by a posthoc test, if appropriate.

The subject of series [2] is primary mouse cortical neurons. Briefly: MTT viability assay in mouse primary cortical neurons. Type of series: cell-based. The protocol: The compounds were diluted from 250 mM DMSO stocks to a 100 mM stock in DMSO. Thereafter, compounds were diluted to 100 μM, 20 μM, 5 μM, 1 μM, 0.2 μM, 0.05 μM, 0.01 μM and 0.001 μM dilution in medium, so that the final DMSO concentration in the well was 0.1% for all conditions. Stock solutions were stored at −20° C. until further use.
Isolation and treatment of primary mouse cortical neurons: Primary cortical neurons were prepared from timed pregnant wild-type C57BL/6JRccHsd mice at E16.5-E18. Animals were sacrificed by carbon dioxide and embryos were dissected in Calcium and Magnesium free Hanks Balanced Salt Solution (CMF-HBSS) containing 15 mM HEPES and 10 mM NaHCO3, pH 7.2. Embryos were decapitated, skin and skull gently removed and cortical hemispheres were separated. After removing meninges and brain stem, the cortex was isolated, chopped with a sterile razor blade in Chop solution (Hibernate-E without Calcium containing 2% B-27) and digested in 2 mg/mL papain (Worthington) dissolved in Hibernate-E without Calcium for 30 min at 30° C. Cortices were triturated for 10-15 times with a fire-polished silanized Pasteur pipette in Hibernate-E without Calcium containing 2% B-27, 0.01% DNaseI, 1 mg/mL BSA, and 1 mg/mL Ovomucoid Inhibitor. Undispersed pieces were allowed to settle by gravity for 1 min and the supernatant was centrifuged for 3 min at 228 g. The pellet was resuspended in Hibernate-E containing 2% B-27, 0.01% DNaseI, 1 mg/mL BSA, 1 mg/mL Ovomucoid Inhibitor and diluted with Hibernate-E containing 2% B-27. After the second centrifugation step (3 min at 228 g), the pellet was resuspended in nutrition medium without glutamate (Neurobasal, 2% B-27, 0.5 mM glutamine, 1% Penicillin-Streptomycin). Cells were counted in a hemacytometer and seeded in nutrition medium on poly-D-lysine pre-coated plates. Cells were cultured at 37° C.; 95% humidity and 5% CO2. All wells were handled the same way. On DIV8, cells were treated with the compounds for the evaluation of the neurotoxic effect. On DIV9, the MTT and LDH assays were performed as described below. The experiments were performed in six technical replicates for all groups per experiment.
MTT viability assay: Viability of cultures was determined on DIV9 by the MTT assay using a plate-reader (570 nm). MTT solution was added to each well in a final concentration of 0.5 mg/mL. After 2 h the MTT containing medium was aspirated. Cells were lysed in 3% SDS and the formazan crystals were dissolved in isopropanol/HCl. Optical density was measured with a plate-reader at wavelength 570 nm. Cell survival rate was expressed as optical density (OD). Values were calculated as percent of control values (vehicle control).
(Tetrazolium dyes change colour on reduction, which living cells bring about.)

Broadly, the IC50 is the concentration needed to halve the response being measured.

Each structure is given as a SMILES string.

T1 sequence (Q16769 29-361): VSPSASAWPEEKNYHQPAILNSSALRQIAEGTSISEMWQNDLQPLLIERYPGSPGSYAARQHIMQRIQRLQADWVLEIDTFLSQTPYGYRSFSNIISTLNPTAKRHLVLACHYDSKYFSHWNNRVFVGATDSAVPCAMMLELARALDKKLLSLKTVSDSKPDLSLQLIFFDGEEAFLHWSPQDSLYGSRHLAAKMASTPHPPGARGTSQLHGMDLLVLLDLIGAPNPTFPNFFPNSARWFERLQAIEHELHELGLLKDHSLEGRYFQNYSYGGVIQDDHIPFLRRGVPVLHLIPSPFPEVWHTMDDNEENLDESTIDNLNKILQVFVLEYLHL

As for `CCC12CC3CC(C1)CC(NC(=O)NCCCn1cncc1C)(C3)C2` [Id, 1-(3-ethyladamantan-1-yl)-3-[3-(5-methyl-1H-imidazol-1-yl)propyl]urea], the IC50 in series [1] came out at 570 nM. Moreover, the IL-1β level in the series on LPS stimulated BV2 cells (compound 1 μM) is listed as 46 % of vehicle control; in the series with LPS stimulated BV2 cells (compound 10 μM) it was 73 % of vehicle control. Besides, the figures for the IL-2 level in the series on LPS stimulated BV2 cells (compound 1 μM) and with LPS stimulated BV2 cells (compound 10 μM) were 38 % of vehicle control and 26 % of vehicle control, respectively. Also, the IL-6 level is recorded as 34 % of vehicle control with LPS stimulated BV2 cells (compound 1 μM) and 24 % of vehicle control in the series with LPS stimulated BV2 cells (compound 10 μM). The TNF-α level in the series on LPS stimulated BV2 cells (compound 1 μM) is recorded as 98 % of vehicle control; with LPS stimulated BV2 cells (compound 10 μM), 84 % of vehicle control. Besides, the “primary cortical neuronal cell viability, MTT” value is listed as 110 % of vehicle control in series [2] (compound 0.001 μM); 107 % of vehicle control in series [2] (compound 0.01 μM); 100 % of vehicle control in series [2] (compound 0.05 μM); 99 % of vehicle control in series [2] (compound 0.2 μM); 99 % of vehicle control in series [2] (compound 1 μM); 93 % of vehicle control in series [2] (compound 5 μM). The figures for the “primary cortical neuronal cell viability, MTT” value in series [2] (compound 20 μM) and in series [2] (compound 100 μM) were 89 % of vehicle control and 53 % of vehicle control, respectively.
On to `Cc1cncn1CCCNC(=O)NC1C2CC3CC(C2)CC1C3` (centres unmarked) [Ii, 1-(adamantan-2-yl)-3-[3-(5-methyl-1H-imidazol-1-yl)propyl]urea], for which the IC50 in series [1] was found to be 189 nM. In addition, the IL-1β level in the series on LPS stimulated BV2 cells (compound 1 μM) is 86 % of vehicle control; in the series with LPS stimulated BV2 cells (compound 10 μM), 125 % of vehicle control. Also, the IL-2 level with LPS stimulated BV2 cells (compound 1 μM) is 66 % of vehicle control; with LPS stimulated BV2 cells (compound 10 μM) it was 48 % of vehicle control. Moreover, the values for the IL-6 level with LPS stimulated BV2 cells (compound 1 μM) and in the series with LPS stimulated BV2 cells (compound 10 μM) were 63 % of vehicle control and 62 % of vehicle control, respectively. The figures for the TNF-α level with LPS stimulated BV2 cells (compound 1 μM) and with LPS stimulated BV2 cells (compound 10 μM) were 104 % of vehicle control and 103 % of vehicle control, respectively. Also, the “primary cortical neuronal cell viability, MTT” value in series [2] (compound 0.001 μM) is recorded as 101 % of vehicle control; in series [2] (compound 0.01 μM), 95 % of vehicle control; in series [2] (compound 0.05 μM) it was 99 % of vehicle control; in series [2] (compound 0.2 μM), 96 % of vehicle control; in series [2] (compound 1 μM), 101 % of vehicle control; in series [2] (compound 5 μM) it was 101 % of vehicle control. Further, the “primary cortical neuronal cell viability, MTT” value in series [2] (compound 20 μM) was 101 % of vehicle control; in series [2] (compound 100 μM) it was 55 % of vehicle control.
On to `Cc1cncn1CCCNC(=O)NC12CC3CC(CC(C)(C3)O1)C2` [Ir, 1-[3-(5-methyl-1H-imidazol-1-yl)propyl]-3-(3-methyl-2-oxaadamantan-1-yl)urea], for which the IC50 in series [1] turned out to be 139 nM. The IL-1β level in the series on LPS stimulated BV2 cells (compound 1 μM) is given as 77 % of vehicle control; in the series with LPS stimulated BV2 cells (compound 10 μM), 94 % of vehicle control. Besides, the values for the IL-2 level in the series on LPS stimulated BV2 cells (compound 1 μM) and in the series on LPS stimulated BV2 cells (compound 10 μM) were 52 % of vehicle control and 37 % of vehicle control, respectively. The IL-6 level is reported as 37 % of vehicle control in the series on LPS stimulated BV2 cells (compound 1 μM) and 38 % of vehicle control in the series on LPS stimulated BV2 cells (compound 10 μM). Further, the TNF-α level with LPS stimulated BV2 cells (compound 1 μM) was 107 % of vehicle control; in the series with LPS stimulated BV2 cells (compound 10 μM), 102 % of vehicle control. In addition, the “primary cortical neuronal cell viability, MTT” value in series [2] (compound 0.001 μM) is recorded as 97 % of vehicle control; in series [2] (compound 0.01 μM), 97 % of vehicle control; in series [2] (compound 0.05 μM), 93 % of vehicle control; in series [2] (compound 0.2 μM), 99 % of vehicle control; in series [2] (compound 1 μM) it was 101 % of vehicle control; in series [2] (compound 5 μM) it was 99 % of vehicle control. Further, the “primary cortical neuronal cell viability, MTT” value in series [2] (compound 20 μM) was 99 % of vehicle control; in series [2] (compound 100 μM), 87 % of vehicle control.
On to `CCC12CC3CC(C1)CC(NC(=O)NCCCn1cncc1C)(C3)O2` [Is, 1-(3-ethyl-2-oxaadamantan-1-yl)-3-[3-(5-methyl-1H-imidazol-1-yl)propyl]urea], for which the IC50 in series [1] was found to be 96 nM. Further, the IL-1β level is on record as 95 % of vehicle control in the series on LPS stimulated BV2 cells (compound 1 μM) and 124 % of vehicle control with LPS stimulated BV2 cells (compound 10 μM). Moreover, the results for the IL-2 level with LPS stimulated BV2 cells (compound 1 μM) and with LPS stimulated BV2 cells (compound 10 μM) were 66 % of vehicle control and 48 % of vehicle control, respectively. Besides, the figures for the IL-6 level with LPS stimulated BV2 cells (compound 1 μM) and in the series on LPS stimulated BV2 cells (compound 10 μM) were 65 % of vehicle control and 64 % of vehicle control, respectively. Further, the TNF-α level in the series on LPS stimulated BV2 cells (compound 1 μM) and with LPS stimulated BV2 cells (compound 10 μM) was 104 % of vehicle control in each case. Besides, the “primary cortical neuronal cell viability, MTT” value is listed as 104 % of vehicle control in series [2] (compound 0.001 μM); 102 % of vehicle control in series [2] (compound 0.01 μM); 103 % of vehicle control in series [2] (compound 0.05 μM); 96 % of vehicle control in series [2] (compound 0.2 μM); 101 % of vehicle control in series [2] (compound 1 μM); 103 % of vehicle control in series [2] (compound 5 μM). The “primary cortical neuronal cell viability, MTT” value in series [2] (compound 20 μM) is listed as 101 % of vehicle control; in series [2] (compound 100 μM), 86 % of vehicle control.
